Experimental data reported in patent US9884122B2, “Small molecule drug conjugates” (Philochem AG, priority 2014, dated 2018).

Experiments:
[1] = molecular target: T1, recombinant carbonic anhydrase IX (Homo sapiens, UniProt Q16790); assay: Determination of ligand KD by fluorescence polarization; assay type: binding; details: for Kd: 5 nM labeled ligand, 1 h room temperature, read-out: KD for fluorophore-linker-ligand complexes
T1 construct: Recombinant CAIX was expressed as described previously; made in house
Procedure: Fluorescently labeled ligands (2 mg) were dissolved in DMSO (100 μL) and diluted 1:2000 into PBS pH 7.4 to determine the stock's concentration by absorbance measurement at 495 nm (ε495=72,000 M^−1 cm^−1). Recombinant CAIX was expressed as described previously^[3], dialyzed against assay buffer (50 mM tris(hydroxymethyl)aminomethane [TIRS] pH 7.4 containing 1 mM ZnSO4) at 4° C. overnight and the protein concentration determined by absorbance measurement at 280 nm (ε280=35,075 M^−1 cm^−1).
In a black 384-well plate in assay buffer (30 μL) fluorescently labeled ligands (5 nM from appropriately diluted DMSO stocks, final DMSO content adjusted to 0.001%) were incubated with increasing concentrations of recombinant carbonic anhydrase IX (4.6 μM to 140 pM in steps of 1:2) for 1 h at room temperature. The fluorescence polarization (FP) was measured on a Spectra Max Paradigm multimode plate reader (Molecular Devices). Experiments were performed in triplicate, mean FP values divided by the top-plateau signal and the fractional FP value fit to equation (2) using KaleidaGraph 4.0 (Synergy Software). FP=([P]0+[L]0+KD)−√{square root over (([P]0+[L]0+KD)^2−4[P]0[L]0)} (2)
Where FP is the fractional fluorescence polarization, [P]0 the total protein concentration, [L]0 the total concentration of the fluorescently labeled ligand and KD the dissociation constant in nM.

[2] = tested on: CAIX expressing SKRC52 cells; assay: In vitro cytotoxicity assay (MTS); assay type: cell-based, human
Procedure: SKRC52 or A549 cells were seeded in 96-well plates in their appropriate culture medium (100 μL) at a density of 5000 cells per well and allowed to grow for 24 h. The medium was replaced with medium containing different concentrations of test substance (100 μL, 300 nM-15 pM in 1:3 dilution steps) and plates were either:
(a) incubated for 72 hours in the presence of the toxic substance, or
(b) incubated for 1 h under standard culture conditions, followed by removal of the medium containing the toxic substance, gently washing the cells fresh medium once and adding new medium (100 μL) and incubating for 72 h under culture conditions.
MTS cell viability dye (20 μL, Promega) was added, the plates were incubated for 1 h under culture conditions and the absorbance at 490 nm measured on a Spectra Max Paradigm multimode plate reader (Molecular Devices). Experiments were performed in triplicate and average cell viability calculated as measured background corrected absorbance divided by the absorbance of untreated control wells. EC50 values were determined by fitting data to the four-parameter logistic equation.

[3] = molecular target: T1, recombinant carbonic anhydrase IX; assay: biochemical; assay type: binding
Procedure: The FP was measured on a Spectra Max Paradigm multimode plate reader (Molecular Devices). Experiments were performed in triplicate and data analyzed as described by Wang and co-workers.^[4]

SKRC52 xenograft tumors = tested on: SKRC52 xenograft tumors
Procedure: SKRC52 xenograft tumors were implanted into balb/c nu/nu mice (Charles River) as described above. […] 5 doses of 4 nmol 7a,b, 8a,b or 7 doses of 70 nmol 9a,b each in PBS pH 7.4 (150 μL) containing 5% DMSO were given on 5 or 7 consecutive days and one group was treated with vehicle (5% DMSO in PBS pH 7.4). In the case of 7-9b an equimolar amount of AAZ was added to the injection solution to control for a possible antitumor activity of CAIX inhibitors. Sorafenib and sunitnib were administered at a standard dose of 30 mg/kg as described previously.^[5] Animals were weighed and tumor sizes measured daily and the tumor volume calculated according to the formula (long side)×(short side)^2×0.5. […] Prism 6 (GraphPad Software) was used for data analysis (regular two-way ANOVA with the Bonferroni test).

[4] = tested on: CAIX-expressing SKRC52 xenografts; details: mouse, in vivo
[5] = tested on: subcutaneous SKRC52 tumors; details: 3 nmol intravenous, 1-12 h
Procedure: SKRC52 cells were grown to 80% confluence and detached with Trypsin-EDTA 0.05% (Invitrogen). Cells were washed with PBS pH 7.4 once, counted and resuspended in PBS to a final concentration of 6.7×10^7 cells mL^−1. Athymic balb/c nu/nu mice, 8-10 weeks of age (Charles River) were anesthetized with isofluorane and aliquots of 1×10^7 cells (150 μL of suspension) injected subcutaneously into their lower back.
Food and water was given ad libitum during that period.
Mice were subsequently sacrificed by cervical dislocation.

[6] = Homo sapiens, SK-RC-52, Condition (a): incubated 72 hours in the presence of the toxic substance
[7] = Homo sapiens, SK-RC-52, Condition (b): 1 h exposure, wash, then 72 h, concentrations up to 300 nM
[8] = Condition (b): 1 h exposure, wash, then 72 h, concentrations up to 300 nM

`CC(C)[C@@H](C(=O)NCCOCCOCCNC(=S)Nc1ccc(-c2c3ccc(=O)cc-3oc3cc(O)ccc23)c(C(=O)O)c1)n1cc(-c2ccc(S(N)(=O)=O)cc2)nn1` [Compound 2a, (S)—N-(2-(2-(2-aminoethoxy)ethoxy)ethyl)-3-methyl-2-(4-(4-sulfamoylphenyl)-1H-1,2,3-triazol-1-yl)butanamide fluorescein conjugate] gave a Kd [1] of 18.1 ± 1.3 nM.
Work on `COc1cc2cc(c1Cl)N(C)C(=O)C[C@@H](OC(=O)[C@@H](C)NC(=O)CCSC)[C@]1(C)O[C@@H]1[C@@H](C)[C@@H]1C[C@](O)(NC(=O)O1)[C@@H](OC)/C=C/C=C(\C)C2` [DM1SMe, DM1-SMe, reference compound] yielded an EC50 [2, 6] of 0.5 nM and an EC50 [2, 7] of 5.8 ± 1.1 nM.
With `NS(=O)(=O)c1ccc(C(=O)NCCOCCOCCNC(=S)Nc2ccc(-c3c4ccc(=O)cc-4oc4cc(O)ccc34)c(C(=O)O)c2)cc1` [Compound 5a, N-(2-(2-(2-aminoethoxy)ethoxy)ethyl)-4-sulfamoylbenzamide fluorescein conjugate] the Kd [1] was 218 ± 9 nM.
With `CC(C)(C)OC(=O)NCCOCCOCCNC(=S)Nc1ccc(-c2c3ccc(=O)cc-3oc3cc(O)ccc23)c(C(=O)O)c1` [Compound 6a, Tert-butyl (2-(2-(2-aminoethoxy)ethoxy)ethyl)carbamate fluorescein conjugate] the “binding to CAIX (in words)” value [1] was “did not bind to the CAIX”.
For `NS(=O)(=O)c1ccc(Nc2nc(Cl)nc(NCCOCCOCCNC(=S)Nc3ccc(-c4c5ccc(=O)cc-5oc5cc(O)ccc45)c(C(=O)O)c3)n2)cc1` [Compound 3a, 4-((4-((2-(2-(2-aminoethoxy)ethoxy)ethyl)amino)-6-chloro-1,3,5-triazin-2-yl)amino)benzenesulfonamide fluorescein conjugate], the Kd [1] was 46.8 ± 1.2 nM.
In the case of `COc1cc2[nH]cc(C(=O)N3C[C@@H](CCl)c4c3cc(OC(=O)N(C)CCSSC[C@H](NC(=O)[C@H](CC(=O)O)NC(=O)[C@H](CCCNC(=N)N)NC(=O)[C@H](CC(=O)O)NC(=O)CCCCn3cc(CCCC(=O)O)nn3)C(=O)O)c3ccccc43)c2cc1OCCN(C)C` [Compound 8b, Untargeted CBI Carbamate], the “binding affinity for recombinant CAIX in vitro (in words)” value (shortened to “binding affinity for recombinant CAIX”) [3] is reported as “do not exhibit strong binding” and the tumor growth effect (SKRC52 xenograft tumors; 5 doses of 4 nmol on 5 consecutive days, 7a vs vehicle p<0.0001, vs 7b plus AAZ p<0.05) is reported as “did not lead to any retardation in tumor growth”.
With `CNC(=O)c1cc(Oc2ccc(NC(=O)Nc3ccc(Cl)c(C(F)(F)F)c3)cc2)ccn1` [sorafenib, reference compound] the “antitumor effect of standard drugs” value (SKRC52 xenograft tumors; standard dose of 30 mg/kg) was “neither sorafenib nor sunitinib, which represent the most commonly used chemotherapeutic agents for the treatment of kidney cancer, exhibited any detectable antitumor effect”.
In the case of `CC1(C)C(/C=C/C2=C(c3ccc(CCCCC(=O)NCCOCCOCCNC(=O)[C@H](CCCCNC(=O)[C@H](CC(=O)O)NC(=O)[C@H](CC(=O)O)NC(=O)CCCCn4cc(CCCC(=O)Nc5nnc(S(N)(=O)=O)s5)nn4)NC(=O)[C@H](CC(=O)O)NC(=O)[C@H](CC(=O)O)NC(=O)CCCCn4cc(CCCC(=O)Nc5nnc(S(N)(=O)=O)s5)nn4)cc3)C(=C/C=C3/N(CCCCS(=O)(=O)O)c4ccc(S(=O)(=O)O)cc4C3(C)C)/CCC2)=[N+](CCCCS(=O)(=O)[O-])c2ccc(S(=O)(=O)O)cc21` [Compound B4], the “accumulation in the tumour (imaging)” value [4] is reported as “strongly accumulated in the tumour”, the “integrated fluorescence signal in the tumour, of its initial value” [4] is reported as 40% and the “residence on the tumour” value [4] is reported as “significantly longer residence on the tumour”. For the same compound, the “tumour:lung ratio” value [4] was “higher tumour:lung ratio than B3”.
In the case of `COc1cc2cc(c1Cl)N(C)C(=O)C[C@H](OC(=O)[C@H](C)N(C)C(=O)CCSSC[C@H](NC(=O)[C@H](CC(=O)O)NC(=O)[C@H](CCCNC(=N)N)NC(=O)[C@H](CC(=O)O)NC(=O)CCCCn1cc(CCCC(=O)O)nn1)C(=O)O)[C@@]1(C)O[C@H]1[C@H](C)[C@@H]1C[C@@](O)(NC(=O)O1)[C@H](OC)/C=C/C=C(\C)C2` [Compound 9b, Untargeted DM1 Conjugate], the “binding affinity for recombinant CAIX” value [3] is reported as “do not exhibit strong binding”.
Work on `NS(=O)(=O)c1nnc(NC(=O)CCC(=O)NCCOCCOCCNC(=S)Nc2ccc(-c3c4ccc(=O)cc-4oc4cc(O)ccc34)c(C(=O)O)c2)s1` [Compound 1a, N1-(2-(2-(2-aminoethoxy)ethoxy)ethyl)-N4-(5-sulfamoyl-1,3,4-thiadiazol-2-yl)succinamide fluorescein conjugate] yielded a Kd [1] of 12.6 ± 1 nM.
In the case of `COc1cc2[nH]cc(C(=O)N3C[C@@H](CCl)c4c3cc(OC(=O)OCCSSC[C@H](NC(=O)[C@H](CC(=O)O)NC(=O)[C@H](CCCNC(=N)N)NC(=O)[C@H](CC(=O)O)NC(=O)CCCCn3cc(CCCC(=O)O)nn3)C(=O)O)c3ccccc43)c2cc1OCCN(C)C` [Compound 7b, Untargeted CBI Carbonate], the “binding affinity for recombinant CAIX” value [3] is reported as “do not exhibit strong binding”, the Kd ([3]; unlabeled drug-linker conjugate, read-out: KD (competitive fluorescence polarization)) is reported as over 1000 nM and the EC50 [2, 8] is reported as 1.4 ± 0.3 nM.
`CC(C)[C@@H](C(=O)NCCOCCOCCNC(=O)CCCCc1ccc(C2=C(/C=C/C3=[N+](CCCCS(=O)(=O)O)c4ccc(S(=O)(=O)O)cc4C3(C)C)CCC/C2=C\C=C2\N(CCCCS(=O)(=O)O)c3ccc(S(=O)(=O)[O-])cc3C2(C)C)cc1)n1cc(-c2ccc(S(N)(=O)=O)cc2)nn1` [Compound 2c, (S)—N-(2-(2-(2-aminoethoxy)ethoxy)ethyl)-3-methyl-2-(4-(4-sulfamoylphenyl)-1H-1,2,3-triazol-1-yl)butanamide IRDye750 conjugate] was tested, and the “tumor targeting by near infrared imaging” value [5] was “the tumor was barely visible”.
In the case of `COc1cc2[nH]c(C(=O)N3C[C@@H](CCl)c4c3cc(O)c3ccccc43)cc2cc1OCCN(C)C` [Compound 14, Seco CBI Drug], the EC50 [2, 6] is reported as 0.055 ± 0.005 nM and the EC50 [2, 7] is reported as 1 ± 0.1 nM.
With `COc1cc2cc(c1Cl)N(C)C(=O)C[C@H](OC(=O)[C@H](C)N(C)C(=O)CCS)[C@]1(C)O[C@H]1[C@H](C)[C@@H]1C[C@@](O)(NC(=O)O1)[C@H](OC)/C=C/C=C(\C)C2` [DM1, reference compound] the EC50 [2, 8] was 45 ± 10 nM.
